Data set [1] addresses T1, trypsin (Bos taurus, UniProt P00760).
T1 construct: purchased Sigma; host or cells: bovine pancreas (tissue-derived)
T1 sequence (P00760 24-246): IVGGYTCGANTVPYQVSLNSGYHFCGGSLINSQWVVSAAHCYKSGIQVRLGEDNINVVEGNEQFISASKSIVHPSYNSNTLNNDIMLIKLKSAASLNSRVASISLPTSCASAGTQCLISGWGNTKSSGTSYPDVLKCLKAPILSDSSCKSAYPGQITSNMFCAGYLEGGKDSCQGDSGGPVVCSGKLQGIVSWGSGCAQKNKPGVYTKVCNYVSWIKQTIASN
Kind of data set: Simulated intestinal fluid (SIF, trypsin only) digestion of Ara h 1 peptides. It counts as in vitro ADME, bovine. The following applies: SIF containing only trypsin, 200 μg peptide in 1 mL, 37°C, samples at 1, 2, 4, 16 h, LC-MS peak integration; for SIF (trypsin) cleavage, formation of 1073.55 amu cleavage ion, in words: Fig. 2D; for peptide cleaved at the K287 site in SIF (formation of 2227.05 amu ion as percentage of sum of parental and fragment ions): Fig. 2C. The source says: Pepsin from porcine gastric mucosa and trypsin from bovine pancreas were purchased from Sigma. Sequencing grade-modified trypsin was purchased from Promega. Water was obtained using a Synergy Ultrapure water system (Millipore). Modified and unmodified Ara h 1 peptides were synthesized (at least 95% pure) and purchased from New England Peptide. Serum samples from five peanut allergic patients were purchased from PlasmaLab International (Everett, WA).
Simulated gastric fluid (SGF) containing pepsin and simulated intestinal fluid (SIF) containing trypsin were used as described previously (Mattison et al. [2014b]). Synthetic peptides were resuspended in water just prior to use at a concentration of 1 mg/mL. Peptides (200 μg) were digested with SGF or SIF in 1 mL reaction volume for 1, 2, 4, or 16 h at 37°C. Samples (100 μL) were removed at the indicated time points, 5% formic acid was added, and samples were frozen at −80°C prior to analysis by mass spectrometry.
Analysis of trypsin/pepsin digestions: trypsin or pepsin digested Ara h 1 peptides were analyzed via liquid chromatography with tandem mass spectrometry (LC/MS/MS), using an Agilent 1200 LC system, an Agilent Chip Cube interface, and an Agilent 6520 Q-TOF tandem mass spectrometer (Agilent Technologies, Santa Clara, CA) as described in Mattison et al. (Mattison et al. [2014a]). One microliter sample aliquots were transferred to an enrichment column via capillary pump operating at a flow of 4 μL/min. The Nano pump was operated at a flow rate of 600 nL/min. An initial gradient (Solvent A-100% H2O, 0.1% Formic Acid; Solvent B- 90% ACN, 10% H2O and 0.1% Formic Acid) of 97% A was changed to 10% […] at 2 min, 70% at 15 min, 100% at 20 min, and back to 97% at 25 min. A postrun time of 5 min was employed for column equilibration. An initial MS scan was performed from m/z 300 to 1600 and up to six multiply charged ions were selected for MS/MS analysis. The raw MS/MS data files were extracted, sequenced, and searched against a custom database containing the Ara h 1 sequence using Spectrum Mill software (Agilent Technologies, Santa Clara, CA). For relative quantification, samples were run in MS-only mode and chromatographic peak areas were integrated into selected ions representative of the peptide cleavage products, resulting from the protease digest.
We evaluated the digestion of the modified and unmodified peptides using SIF containing only trypsin to mimic intestinal digestion conditions. […] To quantify the results, we integrated the relative peak areas of the 2227.05 and 1073.55 amu ions and undigested parental ions, and plotted the generation of the peptide cleavage products as a percentage of the sum of the parental and fragment ion values over time (Fig.2C and D). […]

Data set [2] has as its system trypsin from bovine pancreas. The experiment in a line: simulated intestinal fluid (SIF) containing trypsin. The following applies: 37°C, up to 16 h.
The subject of data set [3] is Pepsin from porcine gastric mucosa. Kind of data set: Simulated gastric fluid (SGF) containing pepsin. The following applies: 37°C, up to 16 h.

This is an account of results in publication PMC4534154 (Food Science & Nutrition, 2015).

Entries after “also recorded” stand apart in the source; their conditions may differ. Where a SMILES comes first, the peptide text is derived from it.

`CC[C@H](C)[C@H](N)C(=O)N[C@@H](Cc1ccccc1)C(=O)N[C@@H](CC(C)C)C(=O)N[C@@H](C)C(=O)NCC(=O)N[C@@H](CC(=O)O)C(=O)N[C@@H](CCCCNCC(=O)O)C(=O)N[C@@H](CC(=O)O)C(=O)N[C@@H](CC(N)=O)C(=O)N[C@H](C(=O)N[C@H](C(=O)N[C@@H](CC(=O)O)C(=O)N[C@@H](CCC(N)=O)C(=O)N[C@H](C(=O)N[C@@H](CCC(=O)O)C(=O)N[C@@H](CCCCN)C(=O)O)[C@@H](C)CC)[C@@H](C)CC)C(C)C` [IFLAG-CML]: in data set [1], the “SIF (trypsin) cleavage, formation of 1073.55 amu cleavage ion, in words” value was “prevented trypsin cleavage”.
Still for that read-out and setting: in the case of `CC[C@H](C)[C@H](N)C(=O)N[C@@H](Cc1ccccc1)C(=O)N[C@@H](CC(C)C)C(=O)N[C@@H](C)C(=O)NCC(=O)N[C@@H](CC(=O)O)C(=O)N[C@@H](CCCCN)C(=O)N[C@@H](CC(=O)O)C(=O)N[C@@H](CC(N)=O)C(=O)N[C@H](C(=O)N[C@H](C(=O)N[C@@H](CC(=O)O)C(=O)N[C@@H](CCC(N)=O)C(=O)N[C@H](C(=O)N[C@@H](CCC(=O)O)C(=O)N[C@@H](CCCCN)C(=O)O)[C@@H](C)CC)[C@@H](C)CC)C(C)C` [IFLAG] (H-IFLAGDKDNVIDQIEK-OH) it was “very limited SIF proteolysis”.
On to IFLAGDK-CML-DNVIDQIEK, for which, in data set [2], the not cleaved result is reported as “the CML modification prevented trypsin cleavage of the peptide”. For the same molecule, the fragment found result in data set [3] was “IFLAGDKDNVIDQ, major; also recorded: AGDKDNVIDQ, major; also recorded: IFLAGDKD, major”.
For IFLAGDKDNVIDQIEK, the cleaved bond entry in data set [2] is on record as “K547-D548”. The fragment found entry in data set [3] was “IFLAGDKDNVIDQ, major; also recorded: AGDKDNVIDQ, major; also recorded: IFLAGDKD, major”.
VAK-CML-ISMPVNTPGQFEDFFPASSR: in data set [2], the not cleaved result was “less than 5% of the CML-modified VAK peptide was cleaved (16 h)”. The fragment found entry in data set [3] is “VAKISM, major; also recorded: VAKISMPVNTPGQF, major”.
Take VAKISMPVNTPGQFEDFFPASSR: in data set [2], the cleaved bond entry was “K287-I288”. The fragment found result in data set [3] is reported as “VAKISMPVNTPGQF, major; also recorded: VAKISM, major”.
In the case of “VAKISMPVNTPGQFEDFFPASSR [VAK-CML, synthetic Ara h 1 peptide, residues 285–307, with CML modification at lysine 287 (K287)]”, in data set [1] (listed as CML-modified VAK), the “peptide cleaved at the K287 site in SIF (formation of 2227.05 amu ion as percentage of sum of parental and fragment ions)” value is reported as “less than 5%”.
With “VAKISMPVNTPGQFEDFFPASSR [synthetic Ara h 1 peptide, residues 285–307, unmodified]”, the “peptide cleaved at the K287 site in SIF (formation of 2227.05 amu ion as percentage of sum of parental and fragment ions)” value in data set [1] is “about 50%”.
